Among the data in PubChem BioAssay (NCI) are TGI values, retold here.

Test systems include HOP-18 NSCLC; SNB-78 CNS; LXFL 529 NSCLC; DMS 273 small cell lung; IGROV1 ovarian; NCI-H226 lung; M19-MEL melanoma; DLD-1 colon; DMS 114 small cell lung; XF 498 CNS; KM20L2 colon; RXF-631 renal.
Assay in all cases: growth of human tumour cells (NCI), 48 h

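Test compounds were applied to cells in 96-well plates for 48 hours at 5 doses. TGI: total growth inhibition.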

As for `CC(Oc1ccc(OCC2CCCCC2)cc1)C(=O)NCCO` (stereo unspecified), the TGI in the assay on HOP-18 NSCLC, in the assay on SNB-78 CNS, with LXFL 529 NSCLC, in the assay with DMS 273 small cell lung, with IGROV1 ovarian and in the assay on NCI-H226 lung was greater than 100 µM throughout. Moreover, the TGI in the assay with M19-MEL melanoma, in the assay with DLD-1 colon and with DMS 114 small cell lung was greater than 100 µM each time.

Take `c1cnc2c(c1)-n1cccc1C1(CCSC1)NN2` (stereo unspecified): the TGI in the assay on HOP-18 NSCLC, with SNB-78 CNS, in the assay on DMS 273 small cell lung, in the assay on NCI-H226 lung, with M19-MEL melanoma and in the assay on DLD-1 colon was greater than 100 µM in each case. The TGI in the assay on DMS 114 small cell lung and in the assay with XF 498 CNS was greater than 100 µM throughout.

On to `Cc1ccc(NCC(=O)N2CC(=O)Nc3ccccc32)cc1`, for which the TGI in the assay on KM20L2 colon, in the assay on HOP-18 NSCLC, in the assay on SNB-78 CNS, with LXFL 529 NSCLC, in the assay with DMS 273 small cell lung and in the assay on NCI-H226 lung was greater than 100 µM in each case. Moreover, the TGI in the assay on M19-MEL melanoma, with DLD-1 colon, with DMS 114 small cell lung and with XF 498 CNS was greater than 100 µM throughout.

On to `CC(=O)OC1CC2(C)OC(Cc3ccccc32)O1` (stereo unspecified), for which the TGI in the assay with KM20L2 colon, in the assay with HOP-18 NSCLC, in the assay on SNB-78 CNS, in the assay with DMS 273 small cell lung, with IGROV1 ovarian and in the assay on NCI-H226 lung was greater than 100 µM in each case. The TGI in the assay on M19-MEL melanoma, in the assay on DLD-1 colon, in the assay with DMS 114 small cell lung and in the assay on XF 498 CNS was greater than 100 µM throughout.

Consider `CCOC(=O)CSc1nnc(CSc2nc(-c3ccccc3)c(-c3ccccc3)[nH]2)n1-c1ccccc1`, for which the TGI in the assay on KM20L2 colon was 59.2 µM; with SNB-78 CNS, 68.5 µM; in the assay with LXFL 529 NSCLC, 42.4 µM; in the assay on DMS 273 small cell lung it was greater than 100 µM; in the assay with IGROV1 ovarian, greater than 100 µM; with NCI-H226 lung, greater than 73.6 µM. Besides, the TGI in the assay with M19-MEL melanoma was greater than 100 µM; in the assay with DLD-1 colon it was greater than 100 µM; in the assay on DMS 114 small cell lung, 39.8 µM; in the assay on XF 498 CNS, 46.3 µM.

As for `CCC12CCCNC1c1c(n(C)c3ccccc13)C(C(=O)OC)C2` (stereo unspecified), the TGI with KM20L2 colon is 231 µM; with LXFL 529 NSCLC it was greater than 275 µM; in the assay with DMS 273 small cell lung, 246 µM; in the assay with IGROV1 ovarian, greater than 275 µM; with NCI-H226 lung, greater than 275 µM; with M19-MEL melanoma, 194 µM. Besides, the TGI in the assay with DLD-1 colon is greater than 275 µM; in the assay with DMS 114 small cell lung it was 152 µM; in the assay on XF 498 CNS, 123 µM.

In the case of `Cc1cc(C)n2c(-c3ccccc3)c(C)cc2n1`, the TGI in the assay on KM20L2 colon, with HOP-18 NSCLC, in the assay on SNB-78 CNS, in the assay with DMS 273 small cell lung, in the assay on IGROV1 ovarian and with RXF-631 renal was greater than 100 µM throughout. In addition, the TGI with NCI-H226 lung, with M19-MEL melanoma, in the assay on DLD-1 colon and in the assay on DMS 114 small cell lung was greater than 100 µM throughout.

Consider `Cc1ccc(S(=O)(=O)N2c3ccccc3[C@H]3CCC=C[C@H]32)cc1`, for which the TGI was 10.3 µM in the assay on KM20L2 colon; greater than 100 µM with HOP-18 NSCLC; greater than 85.7 µM with SNB-78 CNS; greater than 93.9 µM in the assay with LXFL 529 NSCLC; 18.9 µM in the assay on DMS 273 small cell lung; greater than 100 µM with IGROV1 ovarian. For the same molecule, the TGI is greater than 100 µM with RXF-631 renal; 47.3 µM in the assay on NCI-H226 lung; 37.8 µM in the assay on M19-MEL melanoma; greater than 100 µM in the assay on DLD-1 colon; 15.1 µM with DMS 114 small cell lung; 73.7 µM with XF 498 CNS.

For `CN(C)c1ccc(-c2c(C#N)c(O)n(NS(=O)(=O)c3ccccc3)c(=O)c2C#N)cc1`, the TGI with IGROV1 ovarian and in the assay on NCI-H226 lung was greater than 100 µM throughout.

With `Cc1ccc(N=C2S/C(=C3/CCC=C3N3CCOCC3)N(c3ccc(Cl)cc3)C2=Nc2ccc(C)cc2)cc1`, the TGI with IGROV1 ovarian and in the assay with NCI-H226 lung was greater than 100 µM in each case.

Take `O=C(Nc1nc(C23CC4CC(CC(C4)C2)C3)cs1)c1cc2cc(Cl)ccc2oc1=O`: the TGI in the assay with IGROV1 ovarian and in the assay on NCI-H226 lung was greater than 100 µM throughout.

With `COc1ccc(/C=C/C(=N/NC(=O)N/N=C(/C=C/c2ccc(OC)cc2)C(C)(C)CN2CCCCC2)C(C)(C)CN2CCCCC2)cc1`, the values for the TGI in the assay with IGROV1 ovarian and in the assay on NCI-H226 lung were 5.77 µM and 3.02 µM, respectively.

For the molecule `Cn1cc(S(=O)(=O)NC(=O)Nc2ccc(Cl)cc2)c2ccccc21`, the TGI in the assay on IGROV1 ovarian and with NCI-H226 lung was greater than 100 µM throughout.

Turning to `CC1(C)OCC(C2OC(OC(=O)c3ccc([N+](=O)[O-])cc3)C3OC(C)(C)OC23)O1` (stereo unspecified), the TGI with IGROV1 ovarian and with NCI-H226 lung was greater than 100 µM each time.

Take `O=C(O)CCNC(=O)c1cc(N(CCBr)CCBr)c([N+](=O)[O-])cc1[N+](=O)[O-]`: the TGI in the assay with IGROV1 ovarian and in the assay on NCI-H226 lung was greater than 100 µM throughout.

In the case of `C[C@H](NC(=O)n1c2ccccc2c2ccccc21)C(=O)O`, the TGI in the assay on KM20L2 colon, in the assay on HOP-18 NSCLC, in the assay with LXFL 529 NSCLC, with DMS 273 small cell lung, with IGROV1 ovarian and in the assay on RXF-631 renal was greater than 100 µM in each case. The TGI with NCI-H226 lung, with M19-MEL melanoma, in the assay on DLD-1 colon and in the assay on DMS 114 small cell lung was greater than 100 µM each time.

Regarding `O=C(OC[C@H]1C[C@H]2C(=O)CCC[C@H]2O1)c1ccccc1`, the TGI in the assay on IGROV1 ovarian and in the assay with NCI-H226 lung was greater than 100 µM in each case.

As to `COc1cc2c(cc1OC)CN1CCCc3cc(OC)c(OC)cc3C1C2` (stereo unspecified), the TGI is greater than 100 µM in the assay on IGROV1 ovarian and 96.1 µM in the assay on NCI-H226 lung.

On to `CCCCc1ccc(-n2sc3ncc([N+](=O)[O-])cc3c2=O)cc1`, for which the TGI in the assay with IGROV1 ovarian worked out at 28.1 µM; with NCI-H226 lung, 51.4 µM.

Consider `O=C(COc1ccc(OCC(=O)NNC2=NC(c3cc(F)c(Cl)cc3Cl)CS2)c(Cl)c1)NNC1=NC(c2cc(F)c(Cl)cc2Cl)CS1` (stereo unspecified), for which the TGI with IGROV1 ovarian is greater than 100 µM; in the assay with NCI-H226 lung it was 46 µM.

Take `CCN1C(=O)/C(=C2\SC(c3ccccc3)(c3ccccc3)c3ccccc32)SC1=S`: the TGI with IGROV1 ovarian and with NCI-H226 lung was greater than 100 µM each time.

On to `N#CCCN(CCC#N)c1ccc(C(N=Nc2ccccc2)=Nc2ccc(Cl)cc2)cc1`, for which the TGI in the assay with IGROV1 ovarian and in the assay on NCI-H226 lung was greater than 100 µM in each case.

With `S=C(N/N=C/c1ccccn1)Nc1ccc(Cl)cc1`, the TGI with IGROV1 ovarian came out at 25.6 µM; in the assay with NCI-H226 lung, 3.33 µM.
